Where a SMILES comes first, the peptide text is derived from it.
Tests used:
psoriatic lesions = assay: Topical treatment of psoriatic lesions in a subject, KPV in mineral oil vs contralateral Hydrocortisone; details: for Adverse reactions or side effects: treatment continued for eleven days
Description: In a subject with a diagnosed and confirmed greater than ten year history of dermatologically symptomatic psoriasis, KPV was used to treat inflammation, scaling, dryness, pain, erythema, and pruritis. The subject had psoriatic lesions located bilaterally on the volar (palm side) surface of the forearms. The lesions varied in time of existence for greater than ten years with variagated presentation. The subject presented no opportunistic infection of the integument secondary to the psoriatic lesions.
KPV in a crystalline form was prepared as disclosed in U.S. Pat. No. 5,028,592. Mineral oil was chosen as a carrier for the KPV preparation. One milligram of KPV was administered topically on the affected areas of the integument at a frequency of twice daily. For comparison purposes, a standard dosage amount of Hydrocortisone was placed on the contralateral area of the body of the subject that also manifested the dermatological sequelae of psoriasis. Topical administration was accomplished with standard cotton tipped applicators.
This treatment was continued for eleven days.

fever = details: relative to parent peptide or α-MSH(11-13); cited from earlier work
inflammation = details: relative to L-form tripeptide α-MSH (11-13); cited from earlier work

Molecule: C[C@]12CCC(=O)C=C1CC[C@@H]1[C@@H]2[C@@H](O)C[C@@]2(C)[C@H]1CC[C@]2(O)C(=O)CO [Hydrocortisone]
- Improvement of symptoms associated with the psoriatic lesions (psoriatic lesions; KPV one milligram twice daily in mineral oil, Hydrocortisone standard dosage on contralateral side): showed improvement
- Period of symptom control / relief from symptoms (psoriatic lesions; psoriatic lesions on forearms): three hours
- Adverse reactions or side effects (psoriatic lesions): telangictasia and atrophy of skin

Molecule: [Nle^4,D-Phe^7]-α-MSH
- Antipyretic potency (fever): approximately ten times more potent than the parent peptide

Molecule: CC(C)[C@H](NC(=O)[C@@H]1CCCN1C(=O)[C@@H](N)CCCCN)C(=O)O [KPV, lysine-proline-valine] (H-Lys-Pro-Val-OH)
- Adverse reactions or side effects (psoriatic lesions): No adverse reactions or side effects

Molecule: 10-13 sequence: α-MSH(11-13) with glycine added to form the 10-13 sequence (GKPV; Designed polypeptide with anti-inflammatory, anti-bacterial, anti-fungal and antipyretic properties.)
- Antipyretic potency (fever): slightly decreased potency

Molecule: 8-13 sequence: α-MSH 8-13 fragment (RWGKPV; Designed polypeptide with anti-inflammatory, anti-bacterial, anti-fungal and antipyretic properties.)
- Antipyretic potency (fever): greater than that of the 11-13 sequence

Molecule: α-MSH sequence (4-10): the "core" α-MSH sequence (4-10)
- Antipyretic potency (fever): little antipyretic and anti-inflammatory activity
- Anti-inflammatory activity / general potency (inflammation): little antipyretic and anti-inflammatory activity

Molecule: Ac-[D-K11]-α-MSH 11-13-NH2
- Anti-inflammatory activity / general potency (inflammation): same general potency as the L-form

Molecule: 9-13 sequence: α-MSH 9-13 fragment (WGPKV; Designed polypeptide with anti-inflammatory, anti-bacterial, anti-fungal and antipyretic properties.)
- Antipyretic potency (fever): almost devoid of activity

Reference: patent publication US7232804B2, “Use of KPV tripeptide for dermatological disorders” (Zengen, Inc., priority 2001, dated 2007)
